Measurements taken from PubChem BioAssay (NCI).
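In this assay, cells in 96-well plates receive the compound at five concentrations for 48 hours. Endpoints are linearly interpolated between the surrounding concentrations. GI50 = concentration required for 50% inhibition of growth. TGI: total growth inhibition.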

Experiments:
Test in all cases: inhibition of tumour cell growth, NCI panel, 48 h
KM12 colon = tested on: KM12 colon
UO-31 renal = tested on: UO-31 renal
RPMI-8226 leukemia = tested on: RPMI-8226 leukemia
U251 CNS = tested on: U251 CNS
MDA-N = tested on: MDA-N
T-47D breast = tested on: T-47D breast
SF-539 CNS = tested on: SF-539 CNS
EKVX NSCLC = tested on: EKVX NSCLC
NCI/ADR-RES ovarian = tested on: NCI/ADR-RES ovarian
NCI-H522 lung = tested on: NCI-H522 lung
SNB-75 CNS = tested on: SNB-75 CNS

Structure (SMILES)	TGI (KM12 colon)	TGI (UO-31 renal)	TGI (RPMI-8226 leukemia)	TGI (U251 CNS)	TGI (MDA-N)	TGI (T-47D breast)	TGI (SF-539 CNS)	TGI (EKVX NSCLC)	TGI (NCI/ADR-RES ovarian)	TGI (NCI-H522 lung)	TGI (SNB-75 CNS)	GI50 (KM12 colon)	GI50 (RPMI-8226 leukemia)	GI50 (U251 CNS)	GI50 (MDA-N)	GI50 (T-47D breast)	GI50 (NCI/ADR-RES ovarian)	GI50 (NCI-H522 lung)
O=C1/C(=C/c2ccc(Cl)cc2)N=C(c2ccccc2)N1C1Nc2cc3c(cc2S1)NC(N1C(=O)/C(=C/c2ccc(Cl)cc2)N=C1c1ccccc1)S3 (configuration not stated)	> 100 µM	> 100 µM	> 100 µM	> 100 µM	> 100 µM	> 100 µM	> 100 µM	> 100 µM	> 100 µM	63.3 µM								
Cn1c(=O)c2nc3nnc(C#N)c(N)n3c2n(C)c1=O	> 100 µM	> 100 µM	> 100 µM	> 100 µM	> 100 µM	> 100 µM	> 100 µM	> 100 µM	> 100 µM	> 100 µM								
Cc1nc2c(n1CCC(C)C)C(=O)c1ccccc1C2=O	> 100 µM	86.7 µM		60.4 µM			25.4 µM	92 µM		55.9 µM	63 µM							
O=c1oc2cccnc2n1CCN1CCN(c2ccc(Oc3ccccc3)cc2)CC1		> 100 µM	> 100 µM	> 100 µM	> 100 µM	> 100 µM	> 100 µM	> 100 µM	> 100 µM	> 100 µM	> 100 µM							
Fc1ccc(NCn2nc(COc3ccccc3Cl)n(/N=C/c3ccc(-c4ccc(Cl)cc4Cl)o3)c2=S)cc1Cl	99 µM	> 100 µM	72 µM	75.2 µM	> 100 µM	> 100 µM	> 100 µM	> 100 µM	> 100 µM	> 100 µM								
COc1cc(C2c3[nH]c4ccc(F)cc4c3C[C@H]3COC(=O)N23)cc(OC)c1O (some centres not stated)	26.3 µM	28.9 µM	> 100 µM	25 µM		> 100 µM	11.4 µM	92.3 µM	> 100 µM	35.5 µM	8.84 µM							
CC(=O)O[C@H]1[C@@H](OC2CCCC2(c2ccccc2)c2ccccc2)O[N+]([O-])=C[C@@]12COCc1cc3c(cc12)OCO3 (some centres not stated)	11.3 µM	14.1 µM		22.6 µM	> 100 µM	> 31.2 µM	> 100 µM	> 25.7 µM	14.9 µM	5.35 µM	34.6 µM							
c1nc(SSc2ncnc3nc[nH]c23)c2[nH]cnc2n1	> 44.1 µM	> 100 µM	> 100 µM	> 100 µM		> 100 µM	> 100 µM	> 100 µM	> 30.5 µM	> 100 µM	> 100 µM							
O=C1C=CC[C@H](/C=C/C[C@@H](O)C[C@H](O)/C=C/c2ccccc2)O1	24.7 µM	25.9 µM		25.7 µM	24.9 µM	33.3 µM	21.5 µM	25.2 µM	65.3 µM	18 µM	26.4 µM							
COc1cc(/C=C/c2sc3ccccc3[n+]2C)ccc1N(C)C	21.7 µM		16.2 µM	21.8 µM	22.2 µM	10.8 µM	31.6 µM	> 100 µM	> 100 µM	15.8 µM		10.1 µM	3.15 µM	8.06 µM	7.11 µM	1.36 µM	> 100 µM	0.467 µM
O=C(Nc1nncs1)NS(=O)(=O)n1cnc2ccccc21	> 100 µM		> 100 µM	> 100 µM	> 100 µM	> 100 µM	> 100 µM	> 100 µM	> 100 µM	> 100 µM	> 100 µM							
CNC(=O)c1n[nH]n(Cc2ccccc2)c1=S	> 100 µM	> 100 µM	> 100 µM	> 100 µM	> 100 µM	> 100 µM		> 100 µM	> 100 µM		> 100 µM							
COc1ccccc1-c1nc2ccccc2c(=O)[nH]1	> 100 µM	> 100 µM	> 100 µM	> 100 µM	> 100 µM	> 100 µM		> 100 µM	> 100 µM		> 100 µM							
NC(CCCCN=Cc1nc(-c2ccccc2)oc1O)C(=O)O (configuration not stated)		> 100 µM	> 100 µM	> 100 µM			> 100 µM	> 100 µM		> 100 µM	> 100 µM							
CCN(CC)CCNc1ccc2ncn3c4c(OC)cccc4c(=O)c1c23	17.4 µM	17.5 µM		19.3 µM	17.1 µM	> 100 µM	22.8 µM	17.7 µM		20.7 µM	24.5 µM							
COc1cc2c(oc(=O)c3cc4ccoc4c(OC)c32)c2cccc(O)c12	> 100 µM	> 100 µM	> 100 µM	> 100 µM			> 100 µM	> 100 µM		> 100 µM	> 100 µM							
Clc1ccc2c(c1)CC1C[N+]3=C(CCCC3)C1=C2 (configuration not stated)	> 100 µM	> 100 µM		> 100 µM	> 100 µM	> 100 µM		> 100 µM	> 100 µM	> 100 µM	> 100 µM							
O=c1c[n+](-c2ccccc2)[nH]o1	> 100 µM	> 100 µM	> 100 µM	> 100 µM	> 100 µM	> 100 µM	> 100 µM	> 100 µM	> 100 µM		> 100 µM							
COc1ccc(-c2oc3cc(OC)c(OC)c(OC)c3c(=O)c2OC)cc1OC	> 100 µM	> 100 µM		> 100 µM	> 100 µM	> 100 µM	> 100 µM	> 100 µM	> 100 µM	> 100 µM	> 100 µM							
COc1ccc(/C=C(\C(=O)OCC(C)C)c2ccc(OC)c(OC)c2)cc1OC		> 100 µM	> 100 µM	> 100 µM	> 100 µM	> 100 µM	> 100 µM	> 100 µM	> 100 µM	> 100 µM	> 100 µM							
CN(C)CCCNC(=O)c1cc(NC(=O)c2cc(NC(=O)[C@H]3C[C@@H]3C(=O)Nc3cc(C(=O)Nc4cc(C(=O)NCCCN(C)C)n(C)c4)n(C)c3)cn2C)cn1C	> 100 µM		> 100 µM	> 100 µM			> 100 µM	> 100 µM	> 100 µM	> 100 µM	> 100 µM							
